Legend:
JAK1 = target: T1, JAK1 (Homo sapiens, UniProt P23458); assay: Z'-LYTE kinase assay, JAK1 tyrosine phosphorylation activity; format: biochemical; details: read-out: JAK 1 IC50
T1 construct: 5 μl of catalytic domain recombinant Kinase enzyme+Tyr peptide substrate (Invitrogen, Calif.); purchased Invitrogen
How it was run: (§1)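 Z'-LYTE format using the Tyr6 peptide with recombinant catalytic-domain kinase; 1 h kinase reaction and 1 h development, both at room temperature. IC50s derived from ratiometric FRET signal.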

JAK2 = target: T2, JAK2 (Homo sapiens, UniProt O60674); assay: Z'-LYTE kinase assay, JAK2 tyrosine phosphorylation activity; format: biochemical
T2 construct: 5 μl of catalytic domain recombinant Kinase enzyme+Tyr peptide substrate (Invitrogen, Calif.); purchased Invitrogen
T2 sequence (O60674 849-1124 limits assumed): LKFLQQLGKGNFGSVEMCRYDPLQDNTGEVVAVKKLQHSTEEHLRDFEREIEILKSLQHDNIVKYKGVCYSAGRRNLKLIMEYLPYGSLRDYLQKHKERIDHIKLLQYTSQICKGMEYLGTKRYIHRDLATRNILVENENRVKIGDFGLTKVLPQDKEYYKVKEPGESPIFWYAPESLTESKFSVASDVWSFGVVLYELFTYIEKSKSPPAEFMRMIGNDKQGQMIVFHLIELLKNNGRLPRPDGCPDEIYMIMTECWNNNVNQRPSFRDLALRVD
How it was run: as §1

JAK3 = target: T3, JAK3 (Homo sapiens, UniProt P52333); assay: Z'-LYTE kinase assay, JAK3 tyrosine phosphorylation activity; format: biochemical
T3 construct: 5 μl of catalytic domain recombinant Kinase enzyme+Tyr peptide substrate (Invitrogen, Calif.); purchased Invitrogen
T3 sequence (P52333 822-1111 limits assumed): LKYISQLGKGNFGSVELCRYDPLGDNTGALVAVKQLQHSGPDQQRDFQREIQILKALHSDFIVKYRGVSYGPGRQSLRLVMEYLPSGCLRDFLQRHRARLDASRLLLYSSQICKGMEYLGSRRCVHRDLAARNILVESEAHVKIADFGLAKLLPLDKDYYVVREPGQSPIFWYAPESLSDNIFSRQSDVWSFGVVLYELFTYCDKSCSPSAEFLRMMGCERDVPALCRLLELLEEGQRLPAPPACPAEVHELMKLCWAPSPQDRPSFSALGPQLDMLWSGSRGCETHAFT
How it was run: as §1

Syk [1] = target: T4, Syk (Homo sapiens, UniProt P43405); assay: Syk kinase inhibition (Syk IC50 of Table 1); format: biochemical
TYK2 = target: T5, TYK2 (Homo sapiens, UniProt P29597); assay: Z'-LYTE kinase assay, TYK2 tyrosine phosphorylation activity; format: biochemical
T5 construct: 5 μl of catalytic domain recombinant Kinase enzyme+Tyr peptide substrate (Invitrogen, Calif.); purchased Invitrogen
T5 sequence (P29597 897-1176 limits assumed): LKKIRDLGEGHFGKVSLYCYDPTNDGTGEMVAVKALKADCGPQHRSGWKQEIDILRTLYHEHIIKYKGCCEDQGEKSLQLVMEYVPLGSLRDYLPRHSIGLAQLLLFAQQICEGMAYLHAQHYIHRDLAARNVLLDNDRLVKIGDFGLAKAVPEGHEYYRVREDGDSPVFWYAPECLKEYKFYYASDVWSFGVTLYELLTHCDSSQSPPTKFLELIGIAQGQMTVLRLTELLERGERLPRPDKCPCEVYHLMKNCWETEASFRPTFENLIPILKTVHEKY
How it was run: as §1

[2] = tested on: IL4-induced phospho STAT6 formation in Ramos B lymphocytes; assay: Inhibition of IL4-induced phospho STAT6 formation in Ramos B lymphocytes (flow cytometry); format: cell-based, human; details: Homo sapiens; for inhibition at 0.2 µM: 200 nM compound, read-out: % Inhibition of IL-4 Induced STAT6 Phosphorylation 200 nM; for inhibition at 1 µM: 1 μM compound, read-out: % Inhibition of IL-4 Induced STAT6 Phosphorylation 1 μM
How it was run: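 Read-out: phospho-STAT6 (Y641) mean fluorescent intensity by intracellular flow cytometry, expressed as inhibition of the IL4-induced signal. Ramos B lymphocytes were given compound for 1 h at 37°C, then 1 ng/ml IL4 for 10 min, before fixation and methanol permeabilization.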

Syk [3] = target: T4, Syk; assay: Syk IC50 (Table 1; method not given); format: biochemical

T1 sequence (P23458 875-1153 limits assumed): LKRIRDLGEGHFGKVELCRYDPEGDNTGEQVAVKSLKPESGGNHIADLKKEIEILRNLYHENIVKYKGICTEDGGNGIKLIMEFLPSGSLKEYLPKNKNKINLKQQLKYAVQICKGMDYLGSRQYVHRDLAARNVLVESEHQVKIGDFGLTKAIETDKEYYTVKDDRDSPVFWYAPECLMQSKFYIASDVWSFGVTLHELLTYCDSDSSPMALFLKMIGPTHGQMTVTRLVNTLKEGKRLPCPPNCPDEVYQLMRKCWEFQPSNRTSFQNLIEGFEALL

SMILES	IC50 (JAK1)	IC50 (JAK2)	IC50 (JAK3)	IC50 (Syk [1])	IC50 (TYK2)	IC50 (Syk [3])	inhibition at 0.2 µM [2]	inhibition at 1 µM [2]
CN(C)[C@@H]1CCN(C(=O)Nc2cccc(Nc3cc(N[C@H](CO)c4ccccc4)c(C(N)=O)cn3)c2)C1 [Example 312, 6-(3-((R)-3-(dimethylamino)pyrrolidine-1-carboxamido)phenylamino)-4-((S)-2-hydroxy-1-phenylethylamino)nicotinamide]	> 1 µM	0.1 to 1 µM	0.001 to 0.01 µM	> 1 µM				
CC(=O)Nc1cccc(Nc2cc(NCc3ccccc3F)c(C(N)=O)cn2)c1 [Example 340, 6-(3-acetamidophenylamino)-4-(2-fluorobenzylamino)nicotinamide]	0.1 to 1 µM	0.1 to 1 µM	0.01 to 0.1 µM	> 1 µM				
COC(=O)Nc1cc(Nc2ncc(C(N)=O)c(N[C@H](C)c3ccccc3)n2)ccc1Cl [Example 129, (R)-methyl 5-(5-carbamoyl-4-(1-phenylethylamino)pyrimidin-2-ylamino)-2-chlorophenylcarbamate]	> 1 µM	0.1 to 1 µM	0.01 to 0.1 µM		0.1 to 1 µM	> 1 µM	4%	16.7%
C[C@@H](Nc1nc(Nc2cccc(NC(=O)N3CC=CC3)c2)ncc1C(N)=O)c1ccccc1 [Example 121, (R)-2-(3-(2,5-dihydro-1H-pyrrole-1-carboxamido)phenylamino)-4-(1-phenylethylamino)pyrimidine-5-carboxamide]	0.1 to 1 µM	0.01 to 0.1 µM	0.001 to 0.01 µM		0.01 to 0.1 µM	> 1 µM	18.3%	61.7%
CC(=O)Nc1cccc(Nc2ncc(C(N)=O)c(NCC3CCCN(C(=O)OCc4ccccc4)C3)n2)c1 (stereo not shown) [Example 115, Benzyl 3-((2-(3-acetamidophenylamino)-5-carbamoylpyrimidin-4-ylamino)methyl)piperidine-1-carboxylate]	0.1 to 1 µM	0.1 to 1 µM	0.01 to 0.1 µM		0.1 to 1 µM	> 1 µM	12.3%	53.7%
CNC(=O)Nc1cc(Nc2ncc(C(N)=O)c(NCc3ccccc3)n2)ccc1Cl [Example 131, 4-(benzylamino)-2-(4-chloro-3-(3-methylureido)phenylamino)pyrimidine-5-carboxamide]	> 1 µM	0.1 to 1 µM	0.001 to 0.01 µM		0.01 to 0.1 µM	> 1 µM	0.3%	4.3%
NC(=O)c1cnc(Nc2cccc(NC(=O)C3CCC3)c2)nc1NCc1ccccc1 [Example 27, 4-(benzylamino)-2-(3-(cyclobutanecarboxamido)phenylamino)pyrimidine-5-carboxamide]	0.1 to 1 µM	0.01 to 0.1 µM	0.001 to 0.01 µM		0.01 to 0.1 µM	> 1 µM	7%	54.3%
NC(=O)c1cnc(Nc2ccc(Cl)c(NC(=O)N3CCCC3)c2)nc1NCc1ccccc1 [Example 130, 4-(benzylamino)-2-(4-chloro-3-(pyrrolidine-1-carboxamido)phenylamino)pyrimidine-5-carboxamide]	0.1 to 1 µM	0.1 to 1 µM	0.001 to 0.01 µM		0.01 to 0.1 µM	> 1 µM	0.7%	19%
COCC(=O)Nc1cccc(Nc2ncc(C(N)=O)c(N[C@H](C)c3ccccc3)n2)c1 [Example 47, (R)-2-(3-(2-methoxyacetamido)phenylamino)-4-(1-phenylethylamino)pyrimidine-5-carboxamide]	0.1 to 1 µM	0.01 to 0.1 µM	0.001 to 0.01 µM		0.01 to 0.1 µM	> 1 µM	25.3%	77.7%

The next lines start with results.

IC50 (JAK1)	IC50 (JAK2)	IC50 (JAK3)	IC50 (Syk [1])	IC50 (TYK2)	IC50 (Syk [3])	SMILES	inhibition at 0.2 µM [2]	inhibition at 1 µM [2]
0.01 to 0.1 µM	0.01 to 0.1 µM	< 0.001 µM		0.01 to 0.1 µM	> 1 µM	C[C@@H](Nc1nc(Nc2cccc(NC(=O)N3CC[C@H](O)C3)c2)ncc1C(N)=O)c1ccccc1 [Example 128, 2-(3-((S)-3-hydroxypyrrolidine-1-carboxamido)phenylamino)-4-((R)-1-phenylethylamino)pyrimidine-5-carboxamide]	31.7%	82.7%
0.01 to 0.1 µM	0.001 to 0.01 µM	< 0.001 µM		0.001 to 0.01 µM	0.1 to 1 µM	CC(=O)Nc1cccc(Nc2ncc(C(N)=O)c(NCc3ccccc3)n2)c1 [Example 17, 2-(3-acetamidophenylamino)-4-(benzylamino)pyrimidine-5-carboxamide]	34%	73.7%
0.01 to 0.1 µM	0.001 to 0.01 µM	< 0.001 µM		0.001 to 0.01 µM	0.1 to 1 µM	CC(=O)Nc1cccc(Nc2ncc(C(N)=O)c(NCC3CCCN(C(N)=O)C3)n2)c1 (stereo not shown) [Example 117, 2-(3-acetamidophenylamino)-4-((1-carbamoylpiperidin-3-yl)methylamino)pyrimidine-5-carboxamide]	4.5%	29.5%
0.1 to 1 µM	0.01 to 0.1 µM	0.001 to 0.01 µM		0.001 to 0.01 µM	0.1 to 1 µM	COC(=O)Nc1cccc(Nc2ncc(C(N)=O)c(NCc3ccccc3)n2)c1 [Example 30, methyl 3-(4-(benzylamino)-5-carbamoylpyrimidin-2-ylamino)phenylcarbamate]	8.3%	63%
0.01 to 0.1 µM	0.01 to 0.1 µM	0.001 to 0.01 µM		0.001 to 0.01 µM	0.1 to 1 µM	CC(=O)Nc1cccc(Nc2ncc(C(N)=O)c(NC3CCCCC3)n2)c1 [Example 52, 2-(3-acetamidophenylamino)-4-(cyclohexylamino)pyrimidine-5-carboxamide]	63%	94%
0.01 to 0.1 µM	0.01 to 0.1 µM	< 0.001 µM		0.001 to 0.01 µM	> 1 µM	NC(=O)c1cnc(Nc2cccc(NC(=O)N3CCCC3)c2)nc1NCc1ccccc1 [Example 40, 4-(benzylamino)-2-(3-(pyrrolidine-1-carboxamido)phenylamino)pyrimidine-5-carboxamide]	47.2%	78.8%
0.01 to 0.1 µM	0.01 to 0.1 µM	0.001 to 0.01 µM		0.001 to 0.01 µM	> 1 µM	CNC(=O)Nc1cccc(Nc2ncc(C(N)=O)c(NCc3ccccc3)n2)c1 [Example 39, 4-(benzylamino)-2-(3-(3-methylureido)phenylamino)pyrimidine-5-carboxamide]	15%	60%

Source: patent publication US8853230B2, “Inhibitors of JAK” (Portola Pharmaceuticals, Inc., priority 2009, dated 2014)
